Assay [1] relates to E. coli. The experiment in a line: Antibiogram of ESKAPE pathogens. Type of assay: cell-based. The following applies: Escherichia coli, column assigned by order in flattened table. From the text:
(§1) Supplementary Table 1. Antibiogram of ESKAPE pathogens used in this study.
(§2) Bacteria susceptible to all (blue color) or intermediate/resistant to at least one (red color) of antibiotics per class following the EUCAST breakpoints. Black color is shown if the susceptibility to agents in that class is not assessed. Values are minimal inhibition concentrations (MIC) in µg/ml or for Chloramphenicol in diameter (mm). […]

Assay [2] concerns ESKAPE pathogens. As to the kind of experiment: organism not typed.
Text: as §1, §2

Assay [3] has as its system E. faecium. The experiment in a line: microbe, parasite or virus in culture. To be noted: for MIC: Enterococcus faecium.
Text: as §1, §2

Assay [4] relates to multidrug resistant bacteria belonging to the ESKAPE pathogen panel. Type of assay: cell-based. To be noted: broth microdilution, ESKAPE panel. As for the experimental part: Bactericidal activity was assessed by broth microdilution assay. […] After incubation, 100 µl of 6% TSB (w/v) were added and absorbance was measured at 600 nm (Tecan, Switzerland) and monitored for 18 h. Afterward, 100 µl per well were plated on LB agar to determine the numbers of viable bacteria microbiologically. Bactericidal activity is expressed as the LC99.9, the lowest concentration that killed ≥99.9 % of bacteria.
Background: In broth dilution the organism is exposed to a series of concentrations in liquid medium.

Assay [5] relates to several pathogenic bacteria. As to the kind of experiment: Radial diffusion assay, all tested strains. It is filed as cell-based. How it is done:
Antimicrobial activity was analyzed by radial diffusion assay. Log-phase bacteria were cultivated for up to 18 h in TSB (TSB, Becton Dickinson, USA), washed and diluted to 4 × 10^6 CFU in 10 ml agar. Bacteria were incubated in 10 ml of 10 mM sodium phosphate, pH 7.4, containing 0.3 mg/ml of TSB powder and 1% (w/v) low EEO-agarose (AppliChem). 1 µg of each lipopeptide was pipetted into punched wells in a final volume of 4 µl and diffused into the gel for 3 h at 37 °C. After that, a nutrient-rich gel with 6% TSB (w/v) and 1% agarose in 10 mM sodium phosphate buffer was poured on top of the first gel and incubated for up to 24 h at 37 °C. Then the diameter of inhibition zones was measured.

The subject of assay [6] is S. aureus ATCC 25923. It is filed as cell-based. The following applies: for Fold change in MIC: relative to MIC of first passage, Mean. As for the experimental part: Development of resistance to the peptides was assessed with S. aureus and S. Typhimurium. […] Bacteria were cultured overnight at 37 °C at 150 rpm in TSB. Bacteria were washed twice with 10 mM sodium phosphate buffer containing 1% (w/v) TSB. […] After incubation, 100 µl of 6% TSB (w/v) was added and plates incubated in a humidified atmosphere for 21 h at 37 °C and 150 rpm.
The MIC, the lowest concentration of peptide/antibiotic that caused a lack of visible bacterial growth, was determined for each bacterial species. […] This was repeated for 25 passages.

Assay [7] has as its system S. aureus. As to the kind of experiment: Antibiogram of ESKAPE pathogens. It is filed as cell-based. To be noted: Staphylococcus aureus.
Text: as §1, §2

In brackets after ≈: the same amount, converted by molar mass. Read-outs that look alike come from different tables or passages of the source. Non-standard residues stand in square brackets, D forms with d. Residues, ends and D or L forms follow the SMILES beside them. ξ: configuration not given here. *: point of attachment. X2 = CCCCCCCCCCCCCCCC(=O)OCC(COC(=O)CCC(=O)*)OC(=O)CCCCCCCCCCCCCCC; X1 = CCCCCCCCCCCCCCCC(=O)OCC(C*)OC(=O)CCCCCCCCCCCCCCC; Palmitoyl = CCCCCCCCCCCCCCCC(=O)*; ξK = NCCCCC(N)C(=O)O; ξC = NC(CS)C(=O)O

This note sets out measurements from article PMC7794397, “Curbing gastrointestinal infections by defensin fragment modifications without harming commensal microbiota” (Communications Biology, 2021).

Take `CC1(C)S[C@@H]2[C@H](NC(=O)[C@H](N)c3ccccc3)C(=O)N2[C@H]1C(=O)O` [Ampicillin]: the values for the MIC in assay [1] (strain DSM682) and in assay [1] (strain DSM8695) were no less than 32 µg/mL and 8 µg/mL (≈ 22.9 µM), respectively.

Turning to `C[C@H]1[C@H](NC(=O)/C(=N\OC(C)(C)C(=O)O)c2csc(N)n2)C(=O)N1S(=O)(=O)O` [Aztreonam], the MIC in assay [2] (read-out: MIC (antibiogram)) is greater than 256 µg/mL.

As for `CO/N=C(\C(=O)N[C@@H]1C(=O)N2C(C(=O)O)=C(COC(N)=O)CS[C@H]12)c1ccco1` [Cefuroxim], the MIC in assay [1] (strain DSM682) is no less than 64 µg/mL.

In the case of `O=C(N[C@H](CO)[C@H](O)c1ccc([N+](=O)[O-])cc1)C(Cl)Cl` [Chloramphenicol], the “diameter (antibiogram)” value in assay [2] (one strain of E. faecium, S. aureus or K. pneumoniae, not assignable) came out at 22 mm.

For the compound `CCCCCCCCCC(=O)N[C@@H](Cc1c[nH]c2ccccc12)C(=O)N[C@H](CC(N)=O)C(=O)N[C@@H](CC(=O)O)C(=O)N[C@@H]1C(=O)NCC(=O)N[C@@H](CCCN)C(=O)N[C@@H](CC(=O)O)C(=O)N[C@H](C)C(=O)N[C@@H](CC(=O)O)C(=O)NCC(=O)N[C@H](CO)C(=O)N[C@@H]([C@H](C)CC(=O)O)C(=O)N[C@@H](CC(=O)c2ccccc2N)C(=O)O[C@@H]1C` [Daptomycin], the “MIC (antibiogram)” value in assay [3] was 4 µg/mL (≈ 2.47 µM).

`CNC(C)C1CCC(N)C(OC2C(N)CC(N)C(OC3OCC(C)(O)C(NC)C3O)C2O)O1` (stereo not shown) [Gentamicin]: in assay [1] (strain DSM8695), the MIC is no more than 1 µg/mL.

As to `C[C@@H](O)[C@H]1C(=O)N2C(C(=O)O)=C(SCCN=CN)C[C@H]12` [Imipenem], the MIC in assay [1] (strain DSM682) is 2 µg/mL (≈ 6.68 µM); in assay [1] (strain DSM8695), no more than 0.25 µg/mL.

On to `C[C@@H](O)[C@H]1C(=O)N2C(C(=O)O)=C(S[C@@H]3CN[C@H](C(=O)N(C)C)C3)[C@H](C)[C@H]12` [Meropenem], for which the results for the MIC in assay [1] (strain DSM682) and in assay [1] (strain DSM8695) were 8 µg/mL (≈ 20.9 µM) and no more than 0.25 µg/mL, respectively.

Take `CCCCCCCCCCCCCCCC(=O)OCC(COC(=O)CCC(=O)N[C@@H](CCCNC(=N)N)C(=O)NCC(=O)N[C@@H](CCCCN)C(=O)N[C@@H](C)C(=O)N[C@@H](CCCCN)C(=O)N[C@@H](CS)C(=O)N[C@@H](CS)C(=O)N[C@@H](CCCCN)C(=O)O)OC(=O)CCCCCCCCCCCCCCC` (stereo partly shown) [Pam-1] (X2-RGKAKCCK-OH; C-terminus assumed): the “bactericidal activity (in words)” value in assay [4] is reported as “no or low bactericidal activity”. Also, the “antimicrobial activity (in words)” value in assay [5] was “generally inactive”.

Take `CCCCCCCCCCCCCCCC(=O)NC(CSCC(COC(=O)CCCCCCCCCCCCCCC)OC(=O)CCCCCCCCCCCCCCC)C(=O)N[C@@H](CCCNC(=N)N)C(=O)NCC(=O)N[C@@H](CCCCN)C(=O)N[C@@H](C)C(=O)N[C@@H](CCCCN)C(=O)N[C@@H](CS)C(=O)N[C@@H](CS)C(=O)N[C@@H](CCCCN)C(=O)O` (stereo partly shown) [Pam-4] (Palmitoyl-[ξC](X1)RGKAKCCK-OH; C-terminus assumed): the “bactericidal activity (in words)” value in assay [4] is listed as “no or low bactericidal activity”. Further, the “antimicrobial activity (in words)” value in assay [5] was “generally inactive”.

As to `CCCCCCCCCCCCCCCC(=O)NCCCCC(NC(=O)CCCCCCCCCCCCCCC)C(=O)N[C@@H](CCCNC(=N)N)C(=O)NCC(=O)N[C@@H](CCCCN)C(=O)N[C@@H](C)C(=O)N[C@@H](CCCCN)C(=O)N[C@@H](CS)C(=O)N[C@@H](CS)C(=O)N[C@@H](CCCCN)C(=O)O` (stereo partly shown) [Pam-5] (Palmitoyl-[ξK](Palmitoyl)RGKAKCCK-OH; C-terminus assumed), the “bactericidal activity (in words)” value in assay [4] is recorded as “moderate effects”. The “antimicrobial activity (in words)” value in assay [5] is “generally inactive”.

In assay [1] (strain DSM8695), `CCN1CCN(C(=O)N[C@@H](C(=O)N[C@@H]2C(=O)N3[C@@H]2SC(C)(C)[C@@H]3C(=O)O)c2ccccc2)C(=O)C1=O` [Piperacillin] returned an MIC of no more than 4 µg/mL.

Regarding `CO[C@H]1/C=C/O[C@@]2(C)Oc3c(C)c(O)c4c(O)c(c(/C=N/N5CCN(C)CC5)c(O)c4c3C2=O)NC(=O)/C(C)=C\C=C\[C@H](C)[C@H](O)[C@@H](C)[C@@H](O)[C@@H](C)[C@H](OC(C)=O)[C@@H]1C` [Rifampicin, reference compound], the “Fold change in MIC” value in assay [6] (Day (passage) 0) turned out to be 1.0; in assay [6] (Day (passage) 1), 0.8; in assay [6] (Day (passage) 2), 1.0; in assay [6] (Day (passage) 3), 1.0; in assay [6] (Day (passage) 4), 1.7; in assay [6] (Day (passage) 5) it was 3.7. For the same compound, the “Fold change in MIC” value was determined as 43.3 in assay [6] (Day (passage) 6); 87.3 in assay [6] (Day (passage) 7); 163.3 in assay [6] (Day (passage) 8); 348.0 in assay [6] (Day (passage) 9); 768.7 in assay [6] (Day (passage) 10); 1366.0 in assay [6] (Day (passage) 11). Besides, the “Fold change in MIC” value came out at 2731.4 in assay [6] (Day (passage) 12); 2732.0 in assay [6] (Day (passage) 13); 3200.7 in assay [6] (Day (passage) 14); 4267.4 in assay [6] (Day (passage) 15); 4267.4 in assay [6] (Day (passage) 16); 4268.0 in assay [6] (Day (passage) 17). Besides, the “Fold change in MIC” value is on record as 4267.4 in assay [6] (Day (passage) 18); 2733.4 in assay [6] (Day (passage) 19); 2731.5 in assay [6] (Day (passage) 20); 2731.4 in assay [6] (Day (passage) 21); 2731.4 in assay [6] (Day (passage) 22); 2733.4 in assay [6] (Day (passage) 23). The “Fold change in MIC” value in assay [6] (Day (passage) 24) is 2741.4; in assay [6] (Day (passage) 25), 2816.0. In addition, the “increase of MIC” value in assay [6] (after 15 passages) is recorded as no less than 4096 fold.

In the case of `CN(C)[C@@H]1C(=O)C(C(N)=O)=C(O)[C@@]2(O)C(=O)C3=C(O)c4c(O)cccc4[C@@](C)(O)[C@H]3C[C@@H]12` [Tetracyclin], the “MIC (antibiogram)” value in assay [2] (one strain of A. baumannii, P. aeruginosa or E. coli, not assignable) is no less than 256 µg/mL.

`NC[C@H]1O[C@H](O[C@H]2[C@H](O)[C@@H](O[C@H]3O[C@H](CO)[C@@H](O)[C@H](N)[C@H]3O)[C@H](N)C[C@@H]2N)[C@H](N)C[C@@H]1O` [Tobramycin] came in with an MIC in assay [1] (strain DSM8695) of no more than 1 µg/mL.

Consider `CN[C@H](CC(C)C)C(=O)N[C@H]1C(=O)N[C@@H](CC(N)=O)C(=O)N[C@H]2C(=O)N[C@H]3C(=O)N[C@H](C(=O)N[C@H](C(=O)O)c4cc(O)cc(O)c4-c4cc3ccc4O)[C@H](O)c3ccc(c(Cl)c3)Oc3cc2cc(c3O[C@@H]2O[C@H](CO)[C@@H](O)[C@H](O)[C@H]2O[C@H]2C[C@](C)(N)[C@H](O)[C@H](C)O2)Oc2ccc(cc2Cl)[C@H]1O` [Vancomycin], for which the MIC in assay [3] (DSM2918, read-out: MIC (antibiogram)) is no less than 32 µg/mL; in assay [3] (read-out: MIC (antibiogram)), no less than 32 µg/mL; in assay [7] (ATCC33592, read-out: MIC (antibiogram)) it was 1 µg/mL (≈ 0.69 µM); in assay [7] (ATCC43300, read-out: MIC (antibiogram)), 1 µg/mL (≈ 0.69 µM); in assay [7] (DSM20231, read-out: MIC (antibiogram)), 1 µg/mL (≈ 0.69 µM).
